Measurements: patent publication US20240327381A1, “Compounds and Compositions for Selective Degradation of Engineered Proteins” (Celgene Corporation, priority 2023, published 2024)
Where two headings read alike, the source gives them in different places.

What was measured:
[1] = target: T1, IKZF1 ZNF2_ZNF3 Q1F degron-tagged CD19 CAR (Homo sapiens, UniProt Q13422, Q146F); assay: Degradation of Q1F degron-tagged CD19 CAR in Jurkat cells (flow cytometry of CAR levels); type: cell-based
T1 construct: ZNF2_ZNF3 Q1F degron (GERPFFCNQCGASFTQKGNLLRHIKLHSGEKPFKCHLCNYACRRRDALTGHLRTHS); fused on or other part: anti-CD19 scFv, CD28 transmembrane domain, 4-1BB costimulatory domain, CD3 zeta signaling domain (the CAR that carries the degron), and Nluc
Text: Q1F degron-targeting compounds were screened in Jurkat cells engineered to express a IKZF1 ZNF2_ZNF3 Q1F. The cell line was generated with lentiviral vectors containing CD19 CARs tagged with IKZF1 ZNF2_ZNF3 QIF Nluc, which were transduced into Jurkat cells. The CD19 CAR comprised an anti-CD19 scFv, a CD28 transmembrane domain, a 4-1BB costimulatory domain, a CD3ζ signaling domain, and a ZNF2_ZNF3 Q1F degron (GERPFFCNQCGASFTQKGNLLRHIKLHSGEKPFKCHLCNYACRRRDALTGHLRTHS; SEQ ID NO: 1; Q1F substitution underlined). Transduced cells were treated with a titration of each small molecule or no drug and then incubated at 37° C. for 18 hours. Cells were washed and stained with appropriate staining reagent to measure CAR levels. The cells were incubated at 4° C. in the staining reagents for 20 mins and then washed 3 times before being read on the flow cytometer. CAR levels were normalized to cells that had not been treated with drug. EC50 and Ymin values were calculated using the resulting titration curve. This identified small molecules that potently degraded the Q1F degron-tagged CARs (Table 1).
(§1) To determine the EC50 value of a compound for the degradation of a given substrate (concentration of compound that achieves half the maximum degradation observed), a four-parameter logistic model (sigmoidal dose-response model) (FIT=(A+{(B−A)/1+[(C/x)D]})) where C is the inflection point (EC50), D is the […], and A and B are the low and high limits of the fit, respectively) was used. All substrate degradation curves were processed and evaluated using ActivityBase (IDBS), a data analysis software package. Ymax is the % protein degraded (Ymin=100−Ymax and is minimum percent protein remaining).

[2] = target: T2, Helios (Homo sapiens, UniProt Q9UKS7); assay: Helios degradation in Jurkat/Helios/HiBit cells (Nano-Glo luminescence); type: cell-based; settings: 18 hr, read-out: Helios Jurkat Hibit IC50
T2 construct: endogenous in cells; host or cells: Jurkat cells, CRISPR/Cas9 knock-in of HiBit at the IKZF2 locus
Description: For Helios, a stable Jurkat cell line was engineered using CRISPR/Cas9 to insert an in-frame HiBit tag into the carboxy-terminal reading frame of the IKZF2 gene. The sequence of human Helios is shown below:
Test compounds were transferred to 1536 well plates using an acoustic dispenser, and Jurkat/Helios/HiBit cells in DMEM/10% FCS were plated at 10,000 cells/well in a final volume of 5 μL. Cells were incubated at 37 C, 95% RH for 18 hr. Luciferase activity was measured by adding 2 μL/well of Nano-Glo reagent (Promega), incubating at RT for 30 min, and reading luminescence on a microtiter plate reader.
as §1

[3] = Jurkat cells expressing CD19 CAR tagged with IKZF1 ZNF2_ZNF3 Q1F; 18 hours at 37° C.; CAR levels normalized to untreated cells; read-out: Q1F Jurkat IC50
[4] = Ymax is the % protein degraded; Jurkat cells expressing Q1F degron-tagged CD19 CAR; 18 hours; read-out: Q1F Jurkat-YMax
[5] = Jurkat, 18 h, read-out: Q1F Jurkat-YMax

T1 sequence (Q13422 whole entry Q146F, the tested form may be a part): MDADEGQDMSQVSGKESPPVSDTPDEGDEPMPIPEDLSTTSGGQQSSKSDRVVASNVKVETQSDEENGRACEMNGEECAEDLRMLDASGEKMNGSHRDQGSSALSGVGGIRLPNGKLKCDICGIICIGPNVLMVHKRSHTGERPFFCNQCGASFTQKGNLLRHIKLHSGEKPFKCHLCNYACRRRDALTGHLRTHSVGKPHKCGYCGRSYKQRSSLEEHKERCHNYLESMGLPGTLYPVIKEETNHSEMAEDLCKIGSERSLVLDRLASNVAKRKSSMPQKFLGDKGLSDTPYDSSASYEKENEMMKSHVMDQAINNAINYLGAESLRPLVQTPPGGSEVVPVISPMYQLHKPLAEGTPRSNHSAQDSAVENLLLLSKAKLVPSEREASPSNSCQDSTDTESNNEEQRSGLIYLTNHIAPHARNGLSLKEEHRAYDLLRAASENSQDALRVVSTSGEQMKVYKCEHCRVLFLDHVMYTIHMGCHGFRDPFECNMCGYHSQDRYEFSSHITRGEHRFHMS
T2 sequence (Q9UKS7 whole entry): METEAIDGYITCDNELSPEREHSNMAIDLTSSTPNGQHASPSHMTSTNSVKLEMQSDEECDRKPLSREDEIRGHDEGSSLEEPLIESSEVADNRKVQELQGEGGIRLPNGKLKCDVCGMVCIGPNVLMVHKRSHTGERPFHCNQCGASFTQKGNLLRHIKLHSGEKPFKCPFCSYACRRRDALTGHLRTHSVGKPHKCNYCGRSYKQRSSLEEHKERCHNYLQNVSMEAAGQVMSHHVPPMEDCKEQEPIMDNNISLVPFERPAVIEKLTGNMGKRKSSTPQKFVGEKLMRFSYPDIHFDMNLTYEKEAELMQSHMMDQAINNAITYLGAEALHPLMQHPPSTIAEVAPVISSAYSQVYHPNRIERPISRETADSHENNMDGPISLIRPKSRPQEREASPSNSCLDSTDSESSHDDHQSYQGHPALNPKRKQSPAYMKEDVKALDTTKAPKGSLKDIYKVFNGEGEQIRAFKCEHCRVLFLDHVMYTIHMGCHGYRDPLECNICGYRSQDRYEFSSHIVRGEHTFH
T2 sequence (Q96SW2 whole entry, further chain): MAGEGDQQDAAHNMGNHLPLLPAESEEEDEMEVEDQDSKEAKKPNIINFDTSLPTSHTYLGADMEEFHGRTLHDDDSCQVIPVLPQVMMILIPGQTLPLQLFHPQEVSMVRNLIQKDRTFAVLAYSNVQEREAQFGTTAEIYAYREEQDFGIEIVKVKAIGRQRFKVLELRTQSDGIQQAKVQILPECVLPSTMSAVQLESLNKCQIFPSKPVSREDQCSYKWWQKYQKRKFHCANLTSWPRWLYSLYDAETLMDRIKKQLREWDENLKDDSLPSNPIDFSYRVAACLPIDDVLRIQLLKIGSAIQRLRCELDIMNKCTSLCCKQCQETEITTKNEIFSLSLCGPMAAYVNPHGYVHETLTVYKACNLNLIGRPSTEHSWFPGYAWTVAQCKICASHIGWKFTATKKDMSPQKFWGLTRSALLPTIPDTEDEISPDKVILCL
T2 sequence (Q16531 whole entry partner): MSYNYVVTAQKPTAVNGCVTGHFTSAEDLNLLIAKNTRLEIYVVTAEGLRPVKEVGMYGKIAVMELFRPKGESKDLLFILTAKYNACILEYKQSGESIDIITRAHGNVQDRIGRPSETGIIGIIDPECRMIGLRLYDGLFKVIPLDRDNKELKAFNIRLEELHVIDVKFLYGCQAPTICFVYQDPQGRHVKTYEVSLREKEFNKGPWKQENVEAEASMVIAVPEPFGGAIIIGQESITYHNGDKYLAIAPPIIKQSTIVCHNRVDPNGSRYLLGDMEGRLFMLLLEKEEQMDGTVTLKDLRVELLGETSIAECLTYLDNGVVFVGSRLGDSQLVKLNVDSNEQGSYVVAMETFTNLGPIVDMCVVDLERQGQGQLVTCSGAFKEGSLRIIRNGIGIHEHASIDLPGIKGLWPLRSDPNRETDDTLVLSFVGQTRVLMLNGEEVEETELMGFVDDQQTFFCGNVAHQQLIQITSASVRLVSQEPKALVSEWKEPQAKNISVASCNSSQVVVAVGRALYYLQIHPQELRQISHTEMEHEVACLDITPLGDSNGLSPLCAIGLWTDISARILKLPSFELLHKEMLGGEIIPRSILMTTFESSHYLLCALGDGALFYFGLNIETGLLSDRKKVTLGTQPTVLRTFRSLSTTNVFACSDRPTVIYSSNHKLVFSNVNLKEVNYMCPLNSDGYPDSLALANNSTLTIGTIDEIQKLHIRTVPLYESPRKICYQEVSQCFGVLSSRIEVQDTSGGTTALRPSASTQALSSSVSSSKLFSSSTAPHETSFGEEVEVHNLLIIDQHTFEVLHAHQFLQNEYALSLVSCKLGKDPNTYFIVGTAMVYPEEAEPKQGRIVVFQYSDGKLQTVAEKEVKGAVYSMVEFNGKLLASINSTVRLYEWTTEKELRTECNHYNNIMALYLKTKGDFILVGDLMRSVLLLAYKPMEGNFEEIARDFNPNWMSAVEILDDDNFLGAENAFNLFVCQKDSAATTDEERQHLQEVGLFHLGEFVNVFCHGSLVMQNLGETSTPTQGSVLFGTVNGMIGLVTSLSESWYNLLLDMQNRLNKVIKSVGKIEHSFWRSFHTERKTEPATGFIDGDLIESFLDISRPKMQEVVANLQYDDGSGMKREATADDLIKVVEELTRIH

| Compound | DC50 [1, 3] [nM] | Dmax [1, 4] [%] | DC50 [2] [nM] | Dmax [1, 5] [%] | DC50 ([1]; read-out: Q1F Jurkat IC50; Jurkat cells expressing CD19 CAR tagged with IKZF1 ZNF2_ZNF3 Q1F; 18 hours at 37° C.; CAR levels normalized to untreated cells) [nM] |
| --- | --- | --- | --- | --- | --- |
| O=C1CCC(N2Cc3c(cc(F)c(C4(O)CCN(Cc5cccc(-n6cccn6)c5)CC4)c3F)C2=O)C(=O)N1 (stereo not drawn) [Compound 15, 3-(5-(1-(3-(1H-pyrazol-1-yl)benzyl)-4-hydroxypiperidin-4-yl)-4,6-difluoro-1-oxoisoindolin-2-yl)piperidine-2,6-dione] | 4.94 | 79.9 | ≥ 10000 | – | – |
| O=C1CCC(N2Cc3c(cc(F)c(C4(O)CCN(Cc5cc(C(F)(F)F)cc(C6CC6)n5)CC4)c3F)C2=O)C(=O)N1 (stereo not drawn) [Compound 17, 3-(5-(1-((6-cyclopropyl-4-(trifluoromethyl)pyridin-2-yl)methyl)-4-hydroxypiperidin-4-yl)-4,6-difluoro-1-oxoisoindolin-2-yl)piperidine-2,6-dione] | 28.9 | 69.2 | ≥ 10000 | – | – |
| O=C1CCC(N2Cc3c(cc(F)c(C4CCN(Cc5ccc6ncsc6c5)CC4)c3F)C2=O)C(=O)N1 (stereo not drawn) [Compound 18, 3-(5-(1-(benzo[d]thiazol-6-ylmethyl)piperidin-4-yl)-4,6-difluoro-1-oxoisoindolin-2-yl) piperidine-2,6-dione] | 0.576 | 93.4 | ≥ 10000 | – | – |
| O=C1CCC(N2Cc3c(cc(F)c(C4(O)CCN(Cc5ccc(C(F)F)cc5)CC4)c3F)C2=O)C(=O)N1 (stereo not drawn) [Compound 19, 3-(5-(1-(4-(difluoromethyl)benzyl)-4-hydroxypiperidin-4-yl)-4,6-difluoro-1-oxoisoindolin-2-yl)piperidine-2,6-dione] | 5.41 | 83.3 | ≥ 10000 | – | – |
| O=C1CCC(N2Cc3c(cc(F)c(C4(O)CCN(Cc5ccc(C(F)(F)F)cc5O)CC4)c3F)C2=O)C(=O)N1 (stereo not drawn) [Compound 22, 3-(4,6-difluoro-5-(4-hydroxy-1-(2-hydroxy-4-(trifluoromethyl)benzyl)piperidin-4-yl)-1-oxoisoindolin-2-yl)piperidine-2,6-dione] | 14.3 | 80 | ≥ 10000 | – | – |
| O=C1CCC(N2Cc3c(cc(F)c(C4(O)CCN(Cc5cccc(C(F)(F)F)c5)CC4)c3F)C2=O)C(=O)N1 (stereo not drawn) [Compound 26, 3-(4,6-difluoro-5-(4-hydroxy-1-(3-(trifluoromethyl)benzyl)piperidin-4-yl)-1-oxoisoindolin-2-yl)piperidine-2,6-dione] | 6.42 | 78.2 | ≥ 10000 | – | – |
| Cc1ccc(CN2CCC(O)(c3c(F)cc4c(c3F)CN(C3CCC(=O)NC3=O)C4=O)CC2)cc1F (stereo not drawn) [Compound 28, 3-(4,6-difluoro-5-(1-(3-fluoro-4-methylbenzyl)-4-hydroxypiperidin-4-yl)-1-oxoisoindolin-2-yl)piperidine-2,6-dione] | 4.78 | 79.4 | ≥ 10000 | – | – |
| O=C1CCC(N2Cc3c(cc(F)c(C4(O)CCN(Cc5ccc6ccccc6n5)CC4)c3F)C2=O)C(=O)N1 (stereo not drawn) [Compound 29, 3-(4,6-difluoro-5-(4-hydroxy-1-(quinolin-2-ylmethyl)piperidin-4-yl)-1-oxoisoindolin-2-yl)piperidine-2,6-dione] | 6.42 | 87 | ≥ 10000 | – | – |
| O=C1CCC(N2Cc3c(cc(F)c(C4(O)CCN(Cc5ccc(C(F)(F)F)cc5Br)CC4)c3F)C2=O)C(=O)N1 (stereo not drawn) [Compound 31, 3-(5-(1-(2-bromo-4-(trifluoromethyl)benzyl)-4-hydroxypiperidin-4-yl)-4,6-difluoro-1-oxoisoindolin-2-yl)piperidine-2,6-dione] | 14 | 82.8 | ≥ 10000 | – | – |
| O=C1CCC(N2Cc3c(cc(F)c(C4(O)CCN(Cc5ccccc5C(F)(F)F)CC4)c3F)C2=O)C(=O)N1 (stereo not drawn) [Compound 32, 3-(4,6-difluoro-5-(4-hydroxy-1-(2-(trifluoromethyl)benzyl)piperidin-4-yl)-1-oxoisoindolin-2-yl)piperidine-2,6-dione] | 9.54 | 80.2 | ≥ 10000 | – | – |
| O=C1CCC(N2Cc3c(cc(F)c(C4(O)CCN(CC5CCCCC5)CC4)c3F)C2=O)C(=O)N1 (stereo not drawn) [Compound 33, 3-(5-(1-(cyclohexylmethyl)-4-hydroxypiperidin-4-yl)-4,6-difluoro-1-oxoisoindolin-2-yl)piperidine-2,6-dione] | 192 | 60.4 | ≥ 10000 | – | – |
| Cc1cc(-c2cc3c(cc2F)C(=O)N(C2CCC(=O)NC2=O)C3)nc(N)c1C (stereo not drawn) [Compound 34, 3-(5-(6-amino-4,5-dimethylpyridin-2-yl)-6-fluoro-1-oxoisoindolin-2-yl) piperidine-2,6-dione] | 7.43 | – | ≥ 10000 | 91.7 | – |
| O=C1CCC(N2Cc3cc(C4(O)CCN(Cc5ccc6ncsc6c5)CC4)c(F)cc3C2=O)C(=O)N1 (stereo not drawn) [Compound 35, 3-(5-(1-(benzo[d]thiazol-6-ylmethyl)-4-hydroxypiperidin-4-yl)-6-fluoro-1-oxoisoindolin-2-yl) piperidine-2,6-dione] | 144 | 63.3 | ≥ 10000 | – | – |
| COc1cccc(CN2CCC(O)(c3c(F)cc4c(c3F)CN(C3CCC(=O)NC3=O)C4=O)CC2)c1 (stereo not drawn) [Compound 36, 3-(4,6-difluoro-5-(4-hydroxy-1-(3-methoxybenzyl)piperidin-4-yl)-1-oxoisoindolin-2-yl)piperidine-2,6-dione] | 3.77 | 77.7 | ≥ 10000 | – | – |
| COc1ccc(CN2CCC(O)(c3c(F)cc4c(c3F)CN(C3CCC(=O)NC3=O)C4=O)CC2)nc1 (stereo not drawn) [Compound 37, 3-(4,6-difluoro-5-(4-hydroxy-1-((5-methoxypyridin-2-yl)methyl)piperidin-4-yl)-1-oxoisoindolin-2-yl)piperidine-2,6-dione] | 33.2 | 62.5 | ≥ 10000 | – | – |
| COc1cccc(CN2CCC(O)(c3c(F)cc4c(c3F)CN(C3CCC(=O)NC3=O)C4=O)CC2)n1 (stereo not drawn) [Compound 38, 3-(4,6-difluoro-5-(4-hydroxy-1-((6-methoxypyridin-2-yl)methyl)piperidin-4-yl)-1-oxoisoindolin-2-yl)piperidine-2,6-dione] | 24.5 | 70.7 | ≥ 10000 | – | – |
| Cc1nc(C)c(S(=O)(=O)N(C)CCN2CCC(O)(c3c(F)cc4c(c3F)CN(C3CCC(=O)NC3=O)C4=O)CC2)s1 (stereo not drawn) [Compound 39, N-[2-[4-[2-(2,6-dioxo-3-piperidyl)-4,6-difluoro-1-oxo-isoindolin-5-yl]-4-hydroxy-1-piperidyl]ethyl]-N,2,4-trimethyl-thiazole-5-sulfonamide] | – | – | ≥ 10000 | 58.9 | 93.8 |
| CN(CCN1CCC(O)(c2c(F)cc3c(c2F)CN(C2CCC(=O)NC2=O)C3=O)CC1)S(=O)(=O)c1ccccc1 (stereo not drawn) [Compound 40, N-[2-[4-[2-(2,6-dioxo-3-piperidyl)-4,6-difluoro-1-oxo-isoindolin-5-yl]-4-hydroxy-1-piperidyl]ethyl]-N-methyl-benzenesulfonamide] | 67.7 | 60 | ≥ 10000 | – | – |
| O=C1CCC(N2Cc3c(cc(F)c(C4(O)CCN(Cc5n[nH]c6ccccc56)CC4)c3F)C2=O)C(=O)N1 (stereo not drawn) [Compound 41, 3-[4,6-difluoro-5-[4-hydroxy-1-(1H-indazol-3-ylmethyl)-4-piperidyl]-1-oxo-isoindolin-2-yl] piperidine-2,6-dione] | 95.3 | 66.2 | ≥ 10000 | – | – |
